Values joined by “and” are separate entries in the source; they are usually repeats but may differ in a detail not shown here. Equal values may be shown once. Values belong to the molecule of their own block, whether it stands above or below them.
Experiments:
[1] = molecular target: T1, P450RAI-1 (Homo sapiens, UniProt O43174); test: Competitive inhibition of all-trans-RA metabolism in COS-1 cells transfected with pcDNA3.1-P450RAI-1; assay type: cell-based; parameters: expressed in transfected cells; host or cells: COS-1 (African green monkey kidney), transient transfection; details: for effectiveness as competitor of P450RAI-1 mediated all-trans-RA metabolism: compared with all-trans-RA; for IC50: 2 nM [3H]all-trans-RA, 3 hours, aqueous soluble radioactivity, read-out: Interpolated ID50, P450RAI-1
T1 sequence (O43174 1-497): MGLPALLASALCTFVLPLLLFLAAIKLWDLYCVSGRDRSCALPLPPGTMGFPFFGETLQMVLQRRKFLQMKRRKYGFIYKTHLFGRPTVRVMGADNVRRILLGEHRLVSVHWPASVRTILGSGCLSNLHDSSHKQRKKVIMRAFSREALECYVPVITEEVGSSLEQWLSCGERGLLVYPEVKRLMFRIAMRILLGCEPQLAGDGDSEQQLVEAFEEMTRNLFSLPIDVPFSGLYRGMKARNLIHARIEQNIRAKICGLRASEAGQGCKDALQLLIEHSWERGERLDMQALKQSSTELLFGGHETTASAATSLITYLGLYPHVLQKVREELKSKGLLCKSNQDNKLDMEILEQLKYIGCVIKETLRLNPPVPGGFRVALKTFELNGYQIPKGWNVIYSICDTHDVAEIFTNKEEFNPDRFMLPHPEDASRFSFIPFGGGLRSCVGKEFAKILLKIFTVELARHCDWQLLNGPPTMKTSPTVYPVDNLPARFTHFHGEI
Protocol: (§1) Panels on the right show cells expressing P450RAI-2 with panels on the left showing cells expressing P450RAI-1.
(§2) Exponentially growing cells were plated in triplicate into 6-well plates and transfected with lug of pcDNA3.1-P450RAI-1 or pcDNA3.1-P450RAI-2 using Fugene 6 transfection reagent with 3 ul per sample as described by the manufacturer (Roche Molecular Biochemicals, IN). Cells were maintained in media supplemented with 10% FBS during transfection.
COS-1 cells were transfected with either pcDNA3.1-P450RAI-1 or pcDNA3.1-P450RAI-2 in 6-well tissue culture plates as described above. 48 hours post-transfection cells were harvested, pooled, washed with DMEM medium and replated into duplicate 48-well plates with 5×10^5 cells per well.

[2] = system: P450RAI-2 transcripts; test: Induction of P450RAI-2 mRNA in cultured cell lines (Northern blot, RT-PCR); details: for induction of P450RAI-2 expression, MCF-7 cells: 10^-6 M retinoid
[3] = molecular target: T2, P450RAI-2 (Homo sapiens, UniProt Q9NR63); test: Competitive inhibition of all-trans-RA metabolism in COS-1 cells transfected with pcDNA3.1-P450RAI-2; assay type: cell-based; parameters: The full-length human P450RAI-2 cDNA was cloned into the eukaryotic expression vector pcDNA 3.1; expressed in transfected cells; host or cells: COS-1 (African green monkey kidney), transient transfection; details: for effectiveness as competitor of P450RAI-2 mediated all-trans-RA metabolism: compared with all-trans-RA, COS-1 cells
T2 sequence (Q9NR63 1-512): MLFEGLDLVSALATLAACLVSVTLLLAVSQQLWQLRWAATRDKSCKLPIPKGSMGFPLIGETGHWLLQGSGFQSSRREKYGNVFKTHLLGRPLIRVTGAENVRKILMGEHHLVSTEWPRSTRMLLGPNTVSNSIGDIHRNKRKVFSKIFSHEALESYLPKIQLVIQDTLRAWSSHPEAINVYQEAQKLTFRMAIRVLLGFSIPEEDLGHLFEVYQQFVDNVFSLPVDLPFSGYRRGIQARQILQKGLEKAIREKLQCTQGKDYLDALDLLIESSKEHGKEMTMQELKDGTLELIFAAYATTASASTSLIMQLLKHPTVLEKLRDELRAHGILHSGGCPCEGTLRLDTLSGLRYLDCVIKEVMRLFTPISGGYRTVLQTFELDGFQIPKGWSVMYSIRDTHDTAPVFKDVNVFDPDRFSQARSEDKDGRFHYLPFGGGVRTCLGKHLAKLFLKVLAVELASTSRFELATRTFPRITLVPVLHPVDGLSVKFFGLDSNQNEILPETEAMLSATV
Protocol: as §1, §2
COS-1 cells were transfected with either pcDNA3.1-P450RAI-1 or pcDNA3.1-P450RAI-2 in 6-well tissue culture plates as described above.

[4] = Conversion of [3H]all-trans-RA in controls (media alone, pcDNA3.1 transfected COS-1 cells)
[5] = molecular target: T1, P450RAI-1; test: Metabolism of [3H]all-trans-RA to aqueous-soluble products in COS-1 cells transfected with pcDNA3.1-P450RAI-1; details: 100 mM (so in the source) radiolabelled all-trans-retinoic acid
[6] = molecular target: T2, P450RAI-2; test: Metabolism of [3H]all-trans-RA to aqueous-soluble products in COS-1 cells transfected with pcDNA3.1-P450RAI-2; parameters: dose or concentration left out as unconfirmed; details: radiolabelled all-trans-retinoic acid
[7] = system: P450RAI-2 expression; test: P450RAI-2 expression in RAFT and psoriasis biopsy samples (Northern blot, RT-PCR); assay type: cell-based, human
Protocol: Total RNA aliquots (10 μg) were electrophoresed on a 1.0% formaldehyde-agarose gel and a northern blot performed. The gel was photographed under ultraviolet light and then blotted on Hybond ECL nitrocellulose membrane (Amersham Pharmacia Biotech, UK) and fixed to the membrane by baking at 80° C. for 2 hours under vacuum. […] Three individual cDNA fragments were labeled with α-[^32P]dATP using the Prime-A-Gene Labeling System (Promega, WI). The probes were as follows; P450RAI-1762-1217 bp of SEQ ID NO:13, full length P450RAI-2 SEQ ID NO:4 and a human glyceraldehyde-3-phosphate dehydrogenase (GAPDH) PCR fragment. The blot was hybidized with P450RAI-2, washed two times for 5 minutes in 2×SSPE, 0.1% SDS at room temperature, then washed once at 65° C. for 10 minutes in 1×SSPE, 0.1% SDS and a final wash for 15 minutes at 65° C. in 0.1×SSPE, 0.1% SDS. The blot was exposed at −70° C. for 48 hours to Kodak X-Omat AR film (Eastman Kodak Company, NY). […] The blot was stripped by washing two times for 30 minutes in boiling 0.5% SDS and exposed to film overnight to ensure proper removal of probe. The above protocol was repeated for P450RAI-1 and GAPDH. The P450RAI-1 and GAPDH blots were exposed for 96 and 4 hours respectively.
The final primer concentrations were 45 μM for the P450RAI-1 and P450RAI-2 primers and 11.25 μM for the GAPDH-specific primers. Two separate sets of reactions were performed using the primer sets, P450RAI-1/GAPDH and P450RAI-2/GAPDH. […] The P450RAI-1, P450RAI-2 and GAPDH upstream and downstream amplification primers sets were 5′[…]-3′ (SEQ ID NO: 35) and 5′-[…]-3′ (SEQ ID NO: 36), 5′-[…]-3′ (SEQ ID NO: 37) and 5′-[…]-3′ (SEQ ID NO: 38), 5′-[…]-3′ (SEQ ID NO: 39) and 5′-[…]-3′ (SEQ ID NO: 40) respectively. […] Both the Psoriasis samples show PCR products corresponding to P450RAI-2.

SMILES: CC1=C(/C=C/C(C)=C\C=C\C(C)=C\C(=O)O)C(C)(C)CCC1 [9-cis-RA, 9-cis retinoic acid]
effectiveness as competitor of P450RAI-1 mediated all-trans-RA metabolism [1]: less effective
induction of P450RAI-2 expression, MCF-7 cells ([2]; Northern blot, 12 hours): not clear
effectiveness as competitor of P450RAI-2 mediated all-trans-RA metabolism [3]: less effective

SMILES: CC1=C(/C=C/C(C)=C/C=C/C(C)=C\C(=O)O)C(C)(C)CCC1 [13-cis-RA, 13-cis retinoic acid]
effectiveness as competitor of P450RAI-1 mediated all-trans-RA metabolism [1]: less effective
induction of P450RAI-2 expression, MCF-7 cells ([2]; Northern blot, 12 hours): induced
effectiveness as competitor of P450RAI-2 mediated all-trans-RA metabolism [3]: less effective

SMILES: CCOC(=O)c1ccc(C#Cc2ccc3c(c2)C(C)(C)CCS3)nc1 [Tazarotene]
P450RAI-2 expression, Day14 Psoriasis Biopsy sample ([7]; Northern blot): expressed
P450RAI-2 expression, RAFT sample ([7]; Northern blot): induced
P450RAI-2 expression, RAFT sample ([7]; RT-PCR): shows expression

The next lines start with results.

conversion of substrate to aqueous radioactivity, pcDNA3.1 transfected cells ([4]; COS-1 cells with empty vector pcDNA3.1, 3 hours): 2.7±0.2%
conversion of substrate to aqueous radioactivity, media alone ([4]; media alone control, 3 hours): 1.6±0.1%
all-trans-RA substrate converted to aqueous-soluble products, P450RAI-1 transfected cells [5]: 26±1.5%
IC50 [1]: ~2.5 µM and 2.5 µM
all-trans-RA substrate converted to aqueous-soluble products, P450RAI-2 transfected cells [6]: 34±0.2%
SMILES: CC1=C(/C=C/C(C)=C/C=C/C(C)=C/C(=O)O)C(C)(C)CCC1 [All-trans-RA, all-trans retinoic acid]
time to induction of P450RAI-2 transcripts ([2]; HPK1a-ras cells, RT-PCR, post-addition of inducer): ≤ 2 h
induction of P450RAI-2 transcripts, HPK1a-ras, HeLa and MCF-7 ([2]; Northern blot, 1 μM, 12 hours): show induction
induction of P450RAI-2 expression, MCF-7 cells ([2]; Northern blot, 12 hours): induced
induction of P450RAI-2 expression, HPK1A-RAS keratinocytes ([2]; Northern blot, 10^-6 M, 12 hours): inducible
inducible expression of P450RAI-2, MCF-7, HeLa, HPK1a-ras and WT-E ([2]; RT-PCR, 1 μM): evidence for inducible expression
P450RAI-2 transcripts in NB4, V79 and SK-Luci-6 cells ([2]; RT-PCR, vehicle or all-trans-RA treated): little or no perceptible transcripts

IC50 [1]: > 100 µM
effectiveness as competitor of P450RAI-1 mediated all-trans-RA metabolism [1]: less effective
effectiveness as competitor of P450RAI-1 mediated all-trans-RA metabolism ([1]; listed as retinol): very poor competitors
effectiveness as competitor of P450RAI-2 mediated all-trans-RA metabolism [3]: less effective
effectiveness as competitor of P450RAI-2 mediated all-trans-RA metabolism ([3]; listed as retinol): very poor competitors
IC50 ([3]; read-out: Interpolated ID50, P450RAI-2): > 100 µM
SMILES: CC1=C(/C=C/C(C)=C/C=C/C(C)=C/CO)C(C)(C)CCC1 [Retinol, retinol]

effectiveness as competitor of P450RAI-1 mediated all-trans-RA metabolism [1]: less effective
effectiveness as competitor of P450RAI-1 mediated all-trans-RA metabolism ([1]; listed as retinaldehyde): very poor competitors
effectiveness as competitor of P450RAI-2 mediated all-trans-RA metabolism [3]: less effective
effectiveness as competitor of P450RAI-2 mediated all-trans-RA metabolism ([3]; listed as retinaldehyde): very poor competitors
SMILES: CC1=C(/C=C/C(C)=C/C=C/C(C)=C/C=O)C(C)(C)CCC1 [retinal]
